{"source": "patent EP0754455A1", "about": "“PHARMACEUTICAL COMPOSITIONS BASED ON AMINOMETHYLINDOLES AND THEIR THERAPEUTICAL APPLICATION AS NEUROPROTECTORS IN PARKINSON AND ALZHEIMER DISEASES” (CONSEJO SUPERIOR INVESTIGACIONES CIENTIFICAS (CSIC), priority 1995, dated 1996)", "key": {"[1]": {"biological_target": "T1, MAO-B (Rattus norvegicus, UniProt P19643)", "T1 construct": "from tissue; host or cells: Sprague-Dawley rat liver, mitochondrial fraction", "T1 sequence (P19643 1-520)": "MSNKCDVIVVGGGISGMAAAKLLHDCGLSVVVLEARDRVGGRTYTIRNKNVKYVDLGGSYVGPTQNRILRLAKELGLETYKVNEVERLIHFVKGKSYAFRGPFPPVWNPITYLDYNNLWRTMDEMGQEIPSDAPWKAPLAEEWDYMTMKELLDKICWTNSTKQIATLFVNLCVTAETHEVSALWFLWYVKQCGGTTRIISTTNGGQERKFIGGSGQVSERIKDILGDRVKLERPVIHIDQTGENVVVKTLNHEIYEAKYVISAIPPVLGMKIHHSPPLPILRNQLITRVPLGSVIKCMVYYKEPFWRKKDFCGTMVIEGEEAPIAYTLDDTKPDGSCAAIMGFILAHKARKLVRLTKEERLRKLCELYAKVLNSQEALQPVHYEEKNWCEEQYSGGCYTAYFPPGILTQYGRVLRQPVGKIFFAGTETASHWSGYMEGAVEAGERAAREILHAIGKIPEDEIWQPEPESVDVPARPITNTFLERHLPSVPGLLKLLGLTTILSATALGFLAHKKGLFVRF", "experiment": "Kinetic parameters of suicide-type inhibition, MAO-B (selectivity K1 MAO-A / K1 MAO-B)", "format": "biochemical, Sprague-Dawley rat", "settings": "selectivity for MAO-B", "source_text": "K1 is the affinity constant of the first stage of the reaction and K1 MAO-A / K1 MAO-B the expression of the selectivity.\nK^1cat is the velocity constant for the formation of the covalent irreversible complex during the second stage of the process. To compare the values of these constants towards the two forms of MAO, we express the inhibition efficacy as the ratio K^1cat/K1. The value of these constants (see Tables 2 and 3), is the result of three different experiments, with their corresponding SEM."}, "[2]": {"biological_target": "T2, dopamine uptake carrier (Rattus norvegicus, UniProt P23977)", "T2 construct": "purified synaptosomes of brain striatal tissue from Sprague-Dawley rats; from tissue; host or cells: Sprague-Dawley rat brain striatum, purified synaptosomes", "T2 sequence (P23977 whole entry)": "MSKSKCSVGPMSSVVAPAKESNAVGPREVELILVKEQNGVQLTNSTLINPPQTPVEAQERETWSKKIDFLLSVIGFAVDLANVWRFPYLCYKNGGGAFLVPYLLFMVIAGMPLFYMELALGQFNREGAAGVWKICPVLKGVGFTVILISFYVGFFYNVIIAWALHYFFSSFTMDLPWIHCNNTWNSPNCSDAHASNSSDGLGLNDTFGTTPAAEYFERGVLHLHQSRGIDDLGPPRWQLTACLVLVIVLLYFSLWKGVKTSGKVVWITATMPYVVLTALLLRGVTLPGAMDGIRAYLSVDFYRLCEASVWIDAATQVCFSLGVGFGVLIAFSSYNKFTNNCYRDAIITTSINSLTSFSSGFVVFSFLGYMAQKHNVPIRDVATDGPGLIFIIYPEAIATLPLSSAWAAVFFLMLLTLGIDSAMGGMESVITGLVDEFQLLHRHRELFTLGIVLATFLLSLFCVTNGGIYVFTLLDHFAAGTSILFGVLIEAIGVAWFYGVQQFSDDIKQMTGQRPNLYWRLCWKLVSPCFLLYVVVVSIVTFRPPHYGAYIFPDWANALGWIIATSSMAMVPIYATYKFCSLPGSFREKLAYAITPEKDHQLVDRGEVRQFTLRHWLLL", "experiment": "Dopamine re-uptake in purified synaptosomes of rat brain striatal tissue", "format": "biochemical, Sprague-Dawley rats", "settings": "substrate concentration 0.1 µM", "method": "Kinetic studies of dopamine re-uptake were carried out in purified synaptosomes of brain striatal tissue from Sprague-Dawley rats."}, "[3]": {"biological_target": "T3, MAO-B (Mus musculus, UniProt Q8BW75)", "T3 sequence (Q8BW75 1-520)": "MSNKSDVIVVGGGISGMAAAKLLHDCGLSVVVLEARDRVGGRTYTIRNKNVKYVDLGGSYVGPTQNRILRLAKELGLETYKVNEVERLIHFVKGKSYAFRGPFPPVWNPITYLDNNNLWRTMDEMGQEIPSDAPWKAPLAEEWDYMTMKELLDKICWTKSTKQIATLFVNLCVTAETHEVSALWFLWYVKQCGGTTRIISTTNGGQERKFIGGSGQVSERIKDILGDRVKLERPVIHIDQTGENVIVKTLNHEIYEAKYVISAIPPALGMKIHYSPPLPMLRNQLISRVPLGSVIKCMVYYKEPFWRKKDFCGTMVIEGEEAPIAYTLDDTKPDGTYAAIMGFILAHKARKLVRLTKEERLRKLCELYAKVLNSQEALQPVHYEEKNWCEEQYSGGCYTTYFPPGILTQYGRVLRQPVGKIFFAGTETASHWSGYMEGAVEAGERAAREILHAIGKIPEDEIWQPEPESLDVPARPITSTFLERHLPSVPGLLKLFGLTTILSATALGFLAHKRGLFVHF", "experiment": "Ex vivo inhibition of brain MAO-B after i.p. administration", "method": "(§1) The pharmacological assays were carried out on C57/BL mice. These animals are sensitive to the induction of the symptomatology of Parkinson's disease through the action of MPTP.\n(§2) The animals were sacrificed by decapitation after 2 hours and the brains homogenised in potassium phosphate buffer 50 mM, pH 7.2. Determinations were made of the MAO-A and MAO-B activity in each case using radiometric methods."}, "[4]": {"biological_target": "T4, MAO-A (Mus musculus, UniProt Q64133)", "T4 construct": "the brains homogenised in potassium phosphate buffer 50 mM, pH 7.2; from tissue; host or cells: C57/BL mouse brain homogenate", "T4 sequence (Q64133 1-526)": "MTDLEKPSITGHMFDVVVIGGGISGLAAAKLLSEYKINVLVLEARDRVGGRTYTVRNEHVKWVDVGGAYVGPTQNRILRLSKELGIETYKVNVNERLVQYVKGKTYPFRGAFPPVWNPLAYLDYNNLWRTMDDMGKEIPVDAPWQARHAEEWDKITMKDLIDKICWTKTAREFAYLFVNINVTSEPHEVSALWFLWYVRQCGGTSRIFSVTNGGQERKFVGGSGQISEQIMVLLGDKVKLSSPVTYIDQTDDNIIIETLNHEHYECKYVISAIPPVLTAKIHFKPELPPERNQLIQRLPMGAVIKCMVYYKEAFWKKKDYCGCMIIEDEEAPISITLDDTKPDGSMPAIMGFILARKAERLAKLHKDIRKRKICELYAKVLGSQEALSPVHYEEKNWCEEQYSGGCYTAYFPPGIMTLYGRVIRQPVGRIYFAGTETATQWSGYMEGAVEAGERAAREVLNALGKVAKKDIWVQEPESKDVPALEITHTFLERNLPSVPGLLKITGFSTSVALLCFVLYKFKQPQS", "experiment": "Ex vivo inhibition of brain MAO-A after i.p. administration", "format": "in vivo, C57/BL mice", "settings": "mouse brain homogenate 2 hours after i.p., l-deprenyl 10 mg/Kg, tested compound 4 mg/Kg", "method": "as §1, §2"}, "[5]": {"test_system": "MPTP neurotoxin", "experiment": "Protection against the neurotoxicity of MPTP (striatal DA and DOPAC levels)", "format": "in vivo, mice of the C57/BL species", "settings": "striate, FA-73 3 mg/Kg i.p. 2 h before MPTP HCl 30 mg/Kg i.p., MPTP repeated on day 2, 24 h after last MPTP", "procedure": "Two hours later they were administered MPTP HCl (30 mg/Kg i.p.) and this dose was repeated on the second day. Twenty four hours after the last injection of MPTP the animals were sacrificed. The brains were dissected and determinations made of the dopamine (DA) and 3,4-dihydroxyphenylacetic acid (DOPAC) levels in the striate."}}}
{"smiles": "C#CCNCc1cc2cc(OCc3ccccc3)ccc2[nH]1", "note": "[FA-73]", "values": [{"measurement": "K1 MAO-A/K1 MAO-B", "setting": "[1]", "value": 1066.6}, {"measurement": "IC50", "setting": "[2]", "value": 150, "unit": "µM"}, {"measurement": "crossing of the hematoencephalic barrier", "setting": "[3]; concluded from brain MAO-B inhibition after 4 mg/Kg i.p. in C57/BL mice", "value": "crosses the hematoencephalic barrier"}, {"measurement": "MAO-B ACTIVITY", "setting": "[3]; mouse brain homogenate 2 hours after i.p., l-deprenyl 10 mg/Kg, tested compound 4 mg/Kg, control 303", "value": 16}, {"measurement": "remaining activity at 4 mg/kg", "setting": "[4]; ip, control = 100%", "value": 96.2, "unit": "%"}, {"measurement": "MAO-A ACTIVITY", "setting": "[4]; control 485", "value": 467}, {"measurement": "DOPAC", "setting": "[5]; control 0.98, MPTP alone 0.54", "value": "0.93 ± 0.023", "unit": "µg/g dry tissue"}, {"measurement": "Dopamine (DA)", "setting": "[5]; control 10.85, MPTP alone 3.13", "value": "10.48 ± 0.085", "unit": "µg/g dry tissue"}]}
